Key:
Type in all cases: ADME, organism-based
[1] = test system: Rattus norvegicus; assay: Biodistribution in Sprague-Dawley rat cortex (front) at 37 MBq, iv measured 60 mins post injection; conditions: in vivo, 1 h
[2] = Biodistribution in Sprague-Dawley rat cerebellum pretreated with unlabeled compound at 0.1 mg/kg, ip administered 30 mins before labeled compound treatment at 37 MBq, iv measured 15 mins post injection (reference value: 0.26 %ID/g); design: dose 0.1 mg/kg; conditions: read-out: Drug uptake
[3] = test system: Rattus norvegicus; assay: Biodistribution in Sprague-Dawley rat cortex (rest) at 37 MBq, iv measured 60 mins post injection; conditions: in vivo, 1 h
[4] = test system: Hippocampus; assay: Biodistribution in Sprague-Dawley rat hippocampus at 37 MBq, iv measured 60 mins post injection; conditions: in vivo, 1 h
[5] = test system: Rattus norvegicus; assay: Biodistribution in Sprague-Dawley rat cortex (rest) at 37 MBq, iv measured 30 mins post injection; conditions: in vivo, 0.5 h
[6] = test system: Rattus norvegicus; assay: Biodistribution in Sprague-Dawley rat cortex (rest) pretreated with unlabeled compound at 5 mg/kg, ip administered 30 mins before labeled compound treatment at 37 MBq, iv measured 15 mins post injection (0.36 +/- 0.02 %ID/g); design: dose 5 mg/kg; conditions: in vivo, 0.25 h
[7] = test system: Striatum; assay: Biodistribution in Sprague-Dawley rat striatum at 37 MBq, iv measured 15 mins post injection; conditions: in vivo, 0.25 h
[8] = test system: Rattus norvegicus; assay: Biodistribution in Sprague-Dawley rat cortex (front) pretreated with unlabeled compound at 5 mg/kg, ip administered 30 mins before labeled compound treatment at 37 MBq, iv measured 15 mins post infection (reference value: 0.42 +/- 0.04%ID/g); design: dose 5 mg/kg; conditions: in vivo, 0.25 h
[9] = test system: Rattus norvegicus; assay: Biodistribution in Sprague-Dawley rat cortex (front) at 37 MBq, iv measured 15 mins post injection; conditions: in vivo, 0.25 h
[10] = Biodistribution in Sprague-Dawley rat rest of brain pretreated with unlabeled compound at 0.1 mg/kg, ip administered 30 mins before labeled compound treatment at 37 MBq, iv measured 15 mins post injection (0.20 +/- 0.01 %ID/g); design: dose 0.1 mg/kg; conditions: read-out: Drug uptake
[11] = test system: Hippocampus; assay: Biodistribution in Sprague-Dawley rat hippocampus at 37 MBq, iv measured 5 mins post injection; conditions: in vivo
[12] = Biodistribution in Sprague-Dawley rat hippocampus pretreated with unlabeled compound at 10 mg/kg, ip administered 30 mins before labeled compound treatment at 37 MBq, iv measured 15 mins post injection (reference value: 0.22 +/- 0.22 %ID/g); design: dose 10 mg/kg; conditions: read-out: Drug uptake
[13] = Biodistribution in Sprague-Dawley rat hippocampus pretreated with unlabeled compound at 0.1 mg/kg, ip administered 30 mins before labeled compound treatment at 37 MBq, iv measured 15 mins post injection (reference value: 0.22 +/- 0.22 %ID/g); design: dose 0.1 mg/kg; conditions: read-out: Drug uptake
[14] = test system: Striatum; assay: Biodistribution in Sprague-Dawley rat striatum at 37 MBq, iv measured 30 mins post injection; conditions: in vivo, 0.5 h
[15] = test system: Brain; assay: Biodistribution in Sprague-Dawley rat rest of brain at 37 MBq, iv measured 5 mins post injection; conditions: in vivo
[16] = test system: Hippocampus; assay: Biodistribution in Sprague-Dawley rat hippocampus at 37 MBq, iv measured 15 mins post injection; conditions: in vivo, 0.25 h
[17] = Metabolic stability of the compound in Sprague-Dawley rat brain assessed as compound remaining at 37 MBq, iv measured after 15 mins; conditions: read-out: Stability
[18] = test system: Rattus norvegicus; assay: Biodistribution in Sprague-Dawley rat cortex (front) at 37 MBq, iv measured 5 mins post injection; conditions: in vivo
[19] = test system: Brain; assay: Biodistribution in Sprague-Dawley rat rest of brain at 37 MBq, iv measured 30 mins post injection; conditions: in vivo, 0.5 h
[20] = test system: Striatum; assay: Biodistribution in Sprague-Dawley rat striatum pretreated with unlabeled compound at 0.1 mg/kg, ip administered 30 mins before labeled compound treatment at 37 MBq, iv measured 15 mins post injection (reference value: 0.13 +/- 0.22 %ID/g); design: dose 0.1 mg/kg, route intravenous; conditions: in vivo, 0.25 h
[21] = test system: Blood; assay: Biodistribution in Sprague-Dawley rat blood at 37 MBq, iv measured 15 mins post injection; conditions: in vivo, 0.25 h
[22] = test system: Rattus norvegicus; assay: Biodistribution in Sprague-Dawley rat cortex (rest) pretreated with unlabeled compound at 10 mg/kg, ip administered 30 mins before labeled compound treatment at 37 MBq, iv measured 15 mins post injection (0.36 +/- 0.02 %ID/g); design: dose 10 mg/kg; conditions: in vivo, 0.25 h
[23] = test system: Striatum; assay: Biodistribution in Sprague-Dawley rat striatum pretreated with unlabeled compound at 10 mg/kg, ip administered 30 mins before labeled compound treatment at 37 MBq, iv measured 15 mins post injection (reference value: 0.13 +/- 0.22 %ID/g); design: dose 10 mg/kg, route intravenous; conditions: in vivo, 0.25 h
[24] = test system: Cerebellum; assay: Biodistribution in Sprague-Dawley rat cerebellum at 37 MBq, iv measured 60 mins post injection; conditions: in vivo, 1 h
[25] = test system: Cerebellum; assay: Biodistribution in Sprague-Dawley rat cerebellum at 37 MBq, iv measured 15 mins post injection; conditions: in vivo, 0.25 h
[26] = Metabolic stability of the compound in Sprague-Dawley rat plasma assessed as compound remaining at 37 MBq, iv measured after 15 mins; conditions: read-out: Stability
[27] = test system: Striatum; assay: Biodistribution in Sprague-Dawley rat striatum at 37 MBq, iv measured 5 mins post injection; conditions: in vivo
[28] = test system: Cerebellum; assay: Biodistribution in Sprague-Dawley rat cerebellum at 37 MBq, iv measured 5 mins post injection; conditions: in vivo
[29] = test system: Rattus norvegicus; assay: Biodistribution in Sprague-Dawley rat cortex (front) at 37 MBq, iv measured 30 mins post injection; conditions: in vivo, 0.5 h
[30] = test system: Plasma; assay: Drug metabolism in Sprague-Dawley rat plasma at 37 MBq, iv measured after 5 mins; conditions: in vivo
[31] = Biodistribution in Sprague-Dawley rat striatum pretreated with unlabeled compound at 5 mg/kg, ip administered 30 mins before labeled compound treatment at 37 MBq, iv measured 15 mins post injection (reference value: 0.13 +/- 0.22 %ID/g); design: dose 5 mg/kg, route intravenous; conditions: read-out: Drug uptake
[32] = test system: Blood; assay: Biodistribution in Sprague-Dawley rat blood at 37 MBq, iv measured 30 mins post injection; conditions: in vivo, 0.5 h
[33] = test system: Rattus norvegicus; assay: Biodistribution in Sprague-Dawley rat cortex (front) pretreated with unlabeled compound at 10 mg/kg, ip administered 30 mins before labeled compound treatment at 37 MBq, iv measured 15 mins post infection (reference value: 0.42 +/- 0.04%ID/g); design: dose 10 mg/kg; conditions: in vivo, 0.25 h
[34] = test system: Blood; assay: Biodistribution in Sprague-Dawley rat blood at 37 MBq, iv measured 5 mins post injection; conditions: in vivo
[35] = Biodistribution in Sprague-Dawley rat blood pretreated with unlabeled compound at 10 mg/kg, ip administered 30 mins before labeled compound treatment at 37 MBq, iv measured 15 mins post injection (0.11 +/- 0.01 %ID/g); design: dose 10 mg/kg; conditions: read-out: Drug uptake
[36] = Biodistribution in Sprague-Dawley rat cerebellum pretreated with unlabeled compound at 5 mg/kg, ip administered 30 mins before labeled compound treatment at 37 MBq, iv measured 15 mins post injection (reference value: 0.26 %ID/g); design: dose 5 mg/kg; conditions: read-out: Drug uptake
[37] = test system: Brain; assay: Biodistribution in Sprague-Dawley rat rest of brain at 37 MBq, iv measured 60 mins post injection; conditions: in vivo, 1 h
[38] = test system: Cerebellum; assay: Biodistribution in Sprague-Dawley rat cerebellum at 37 MBq, iv measured 30 mins post injection; conditions: in vivo, 0.5 h
[39] = test system: Brain; assay: Biodistribution in Sprague-Dawley rat rest of brain pretreated with unlabeled compound at 5 mg/kg, ip administered 30 mins before labeled compound treatment at 37 MBq, iv measured 15 mins post injection (0.20 +/- 0.01 %ID/g); design: dose 5 mg/kg, route intravenous; conditions: in vivo, 0.25 h
[40] = test system: Blood; assay: Biodistribution in Sprague-Dawley rat blood pretreated with unlabeled compound at 0.1 mg/kg, ip administered 30 mins before labeled compound treatment at 37 MBq, iv measured 15 mins post injection (0.11 +/- 0.01 %ID/g); design: dose 0.1 mg/kg; conditions: in vivo, 0.25 h
[41] = Biodistribution in Sprague-Dawley rat cortex (rest) pretreated with unlabeled compound at 0.1 mg/kg, ip administered 30 mins before labeled compound treatment at 37 MBq, iv measured 15 mins post injection (0.36 +/- 0.02 %ID/g); design: dose 0.1 mg/kg; conditions: read-out: Drug uptake
[42] = test system: Blood; assay: Biodistribution in Sprague-Dawley rat blood pretreated with unlabeled compound at 5 mg/kg, ip administered 30 mins before labeled compound treatment at 37 MBq, iv measured 15 mins post injection (0.11 +/- 0.01 %ID/g); design: dose 5 mg/kg; conditions: in vivo, 0.25 h
[43] = test system: Hippocampus; assay: Biodistribution in Sprague-Dawley rat hippocampus at 37 MBq, iv measured 30 mins post injection; conditions: in vivo, 0.5 h
[44] = test system: Brain; assay: Biodistribution in Sprague-Dawley rat rest of brain at 37 MBq, iv measured 15 mins post injection; conditions: in vivo, 0.25 h
[45] = Biodistribution in Sprague-Dawley rat hippocampus pretreated with unlabeled compound at 5 mg/kg, ip administered 30 mins before labeled compound treatment at 37 MBq, iv measured 15 mins post injection (reference value: 0.22 +/- 0.22 %ID/g); design: dose 5 mg/kg; conditions: read-out: Drug uptake
[46] = test system: Rattus norvegicus; assay: Biodistribution in Sprague-Dawley rat cortex (rest) at 37 MBq, iv measured 15 mins post injection; conditions: in vivo, 0.25 h
[47] = test system: Rattus norvegicus; assay: Biodistribution in Sprague-Dawley rat cortex (front) pretreated with unlabeled compound at 0.1 mg/kg, ip administered 30 mins before labeled compound treatment at 37 MBq, iv measured 15 mins post infection (reference value: 0.42 +/- 0.04%ID/g); design: dose 0.1 mg/kg; conditions: in vivo, 0.25 h
[48] = Biodistribution in Sprague-Dawley rat cerebellum pretreated with unlabeled compound at 10 mg/kg, ip administered 30 mins before labeled compound treatment at 37 MBq, iv measured 15 mins post injection (reference value: 0.26 %ID/g); design: dose 10 mg/kg; conditions: read-out: Drug uptake
[49] = test system: Striatum; assay: Biodistribution in Sprague-Dawley rat striatum at 37 MBq, iv measured 60 mins post injection; conditions: in vivo, 1 h
[50] = test system: Rattus norvegicus; assay: Biodistribution in Sprague-Dawley rat cortex (rest) at 37 MBq, iv measured 5 mins post injection; conditions: in vivo
[51] = test system: Brain; assay: Biodistribution in Sprague-Dawley rat rest of brain pretreated with unlabeled compound at 10 mg/kg, ip administered 30 mins before labeled compound treatment at 37 MBq, iv measured 15 mins post injection (0.20 +/- 0.01 %ID/g); design: dose 10 mg/kg; conditions: in vivo, 0.25 h
[52] = test system: Blood; assay: Biodistribution in Sprague-Dawley rat blood at 37 MBq, iv measured 60 mins post injection; conditions: in vivo, 1 h

- Drug uptake [1]: 0.21 % ID/g
- tissue uptake at 0.25 h [2]: 0.22 %ID/g
- Drug uptake [3]: 0.16 % ID/g
- Drug uptake [4]: 0.09 % ID/g
- Drug uptake [5]: 0.37 % ID/g
- Drug uptake [6]: 0.14 % ID/g
- Drug uptake [7]: 0.21 % ID/g
- Drug uptake [8]: 0.16 % ID/g
- Drug uptake [9]: 0.53 % ID/g
- tissue uptake at 0.25 h [10]: 0.16 %ID/g
- Drug uptake [11]: 0.2 % ID/g
- tissue uptake at 0.25 h [12]: 0.08 %ID/g
- tissue uptake at 0.25 h [13]: 0.17 %ID/g
- Drug uptake [14]: 0.15 % ID/g
- Drug uptake [15]: 0.25 % ID/g
- Drug uptake [16]: 0.29 % ID/g
- remaining at 0.25 h [17]: > 99%
- Drug uptake [18]: 0.47 % ID/g
- Drug uptake [19]: 0.22 % ID/g
- Drug uptake [20]: 0.14 % ID/g
- Drug uptake [21]: 0.15 % ID/g
- Drug uptake [22]: 0.11 % ID/g
- Drug uptake [23]: 0.08 % ID/g
- Drug uptake [24]: 0.13 % ID/g
- Drug uptake [25]: 0.34 % ID/g
- remaining at 0.25 h [26]: 71%
- Drug uptake [27]: 0.26 % ID/g
- Drug uptake [28]: 0.36 % ID/g
- Drug uptake [29]: 0.44 % ID/g
- Drug metabolism [30]: Active
- tissue uptake at 0.25 h [31]: 0.1 %ID/g
- Drug uptake [32]: 0.11 % ID/g
- Drug uptake [33]: 0.13 % ID/g
- Drug uptake [34]: 0.14 % ID/g
- tissue uptake at 0.25 h [35]: 0.12 %ID/g
- tissue uptake at 0.25 h [36]: 0.12 %ID/g
- Drug uptake [37]: 0.11 % ID/g
- Drug uptake [38]: 0.26 % ID/g
- Drug uptake [39]: 0.09 % ID/g
- Drug uptake [40]: 0.11 % ID/g
- tissue uptake at 0.25 h [41]: 0.27 %ID/g
- Drug uptake [42]: 0.12 % ID/g
- Drug uptake [43]: 0.24 % ID/g
- Drug uptake [44]: 0.27 % ID/g
- tissue uptake at 0.25 h [45]: 0.11 %ID/g
- Drug uptake [46]: 0.46 % ID/g
- Drug uptake [47]: 0.36 % ID/g
- tissue uptake at 0.25 h [48]: 0.09 %ID/g
- Drug uptake [49]: 0.06 % ID/g
- Drug uptake [50]: 0.45 % ID/g
- Drug uptake [51]: 0.09 % ID/g
- Drug uptake [52]: 0.08 % ID/g
Compound: [11CH3]Oc1ncccc1-c1cccc2c(N)c3c(nc12)CN(C1CCC1)C3=O
